Test results published in article PMC9394284, “Discovery of Novel Dual Adenosine A2A and A1 Receptor Antagonists with 1H-Pyrazolo[3,4-d]pyrimidin-6-amine Core Scaffold as Anti-Parkinson’s Disease Agents” (Pharmaceuticals, 2022).
Where two headings read alike, the source gives them in different places.

Assays:
[1] = maximum tolerated dose, single oral administration, rat; conditions: both sexes, in vivo, single oral administration, male and female Sprague Dawley rats
Method: (§1) Rat and dog MTD studies were performed at Frontage Laboratories Inc following testing facility’s SOPs. All procedures described were reviewed and approved by the Institutional Animal Care and Use Committee (IACUC) at Frontage Laboratories Inc.
(§2) For rat MTD study, male and female Sprague Dawley rats (Rattus norvegicus) of 8.1~9.6 weeks of age were purchased from Charles River Laboratories, USA and maintained at standard food and water ad libitum in temperature-controlled room with 12 h on-off light cycle before the experiment. Animals were acclimated to the testing facility for at least 6 to 16 days prior to initiation of dosing. Animals received a single dose of 11o in 0.5% methyl cellulose via oral gavage starting from 150 mg/kg dose level (this initial dose level was selected based on available data and the estimated toxicity using EPA’s toxicity estimation software tool (TEST) version 4.2.1) in 10 mL/kg dose volume. Subsequent doses occurred 3 or 4 days following the previous dose and were increased based on findings from the previous dosing(s). The procedure continued until four dosing events occurred. Animals were observed once in the morning and once in the afternoon throughout the study for clinical observations. Body weights were measured on the day prior to dose administration. […]

Sprague Dawley rats = assay: as above; conditions: in vivo, po
Method: as §1, §2

[2] = metabolic stability in cryopreserved monkey hepatocytes
Method: (§3) Metabolic stability of 11o was determined in cryopreserved hepatocytes from mice, rats, dogs, monkeys and human according to the SOPs of Frontage Laboratories Inc. Briefly, cryopreserved hepatocytes for pre-clinical animals and for human (BioIVT, Westbury, NY, USA) were thawed in a 37 °C water bath with gentle shaking until ice had almost melted. The suspensions were immediately transferred to a centrifuge tube (50 mL) containing pre-warmed thawing media at 37 °C with gentle handshaking to prevent the cells from settling. Cell suspensions were centrifuged at 50× g and 4 °C for 5 min. The supernatant was discarded and the pellets were resuspended in prewarmed incubation media (5 mL) at 37 °C. The percentage of viable cells in the suspension was determined by Trypan blue staining method to ensure viability of ≥70 %. […] The samples were centrifuged and aliquots of the supernatant were analyzed for parent compounds by LC/MS/MS using suitable multiple reaction monitoring (MRM) transitions. […] The disappearance of 11o and midazolam was monitored by LC/MS/MS (MRM) analysis of the hepatocyte extracts at each time point. The peak area ratio of the analyte to internal standard was obtained for each sample and the rate of disappearance of 11o was assessed by comparing the peak area ratios at various time points to the peak area ratio obtained at t = 0. The t1/2 is obtained (using the linear portion of semi-log plot of the area ratio vs. time) and the CLint values determined using well-stirred model.

[3] = pharmacokinetics and bioavailability in mouse plasma; format: in vivo, Crl:CD-1 mice
Method: Male Crl:CD-1 mice of 9~10 weeks of age were purchased from Charles River Laboratories, USA and maintained at standard food and water ad libitum in temperature-controlled room with 12 h on-off light cycle before the experiment. All procedures described were reviewed and approved by the Institutional Animal Care and Use Committee (IACUC) at Frontage Laboratories Inc. For PO dosing, mice were given 11o dissolved in DMSO: PEG400 (1:3, v:v) via gavage. For IV dosing, 11o solubilized in DMSO: PEG400: saline (1:3:6, v:v) were injected into tail veins at dose volume of 1 mL/kg. For IN dosing, 11o solubilized in DMSO and 25 μL of the appropriate dosing solution was placed near the nares to allow animal to inhale the dose. Three mice were sampled from each group for each blood and brain collection time point. Time points are 0.5, 1, 2, 4, 8, 24 h for PO and IN dosing and 0.083, 1, 2, 4, 8 and 24 h for IV dosing. Mice were euthanized by terminal retro-orbital blood collection under isoflurane anesthesia, followed by opening of the thoracic cavity per facility SOPs. A target volume of 1 mL was collected into tubes containing K3EDTA anti-coagulant, inverted several times and held on wet ice until centrifuged under refrigeration (set at 5 °C for 10 min at 2000× g). Resulting plasma were stored in a freezer set to maintain −70 °C until analyzed for 11o concentration. Brain was removed from each animal and weighed following termination, snap frozen and stored until later use. Plasma and brain PK analysis was conducted using WinNolin Version 6.2.1 (Pharsight, Mountain View, CA, USA), operating as a validated software system. Noncompartmental analysis was conducted using the extravascular administration model for oral dosing and the IV bolus model for IV dosing. The peak plasma and brain concentration, time to achieve peak plasma concentration, half-life, and area under the plasma concentration-time curve (Cmax, Tmax, T1/2 and AUC) were calculated from mean plasma concentrations for each sampling time/dose group for 11o. Nominal blood collection times were used for calculation of PK parameters. Dose proportionality was assessed, and bioavailability was calculated for PO dosing.

[4] = metabolic stability in cryopreserved dog hepatocytes; conditions: dog hepatocytes; 1 μM 11o; little/no compound depletion
Method: as §3

[5] = male, Crl:CD-1, inhaled or intranasal, mouse plasma, 10 mg/kg IN
[6] = male, Crl:CD-1, mouse plasma, 1 mg/kg IV
[7] = male, Crl:CD-1, mouse plasma, 1 mg/kg PO
[8] = male, Crl:CD-1, mouse plasma, 3 mg/kg PO
[9] = male, Crl:CD-1, mouse plasma, 10 mg/kg PO

For `Cc1cc(Cn2ncc3c(-c4cccc(C#N)c4F)nc(N)nc32)ccc1N` [11o, 3-(6-Amino-1-(4-amino-3-methylbenzyl)-1H-pyrazolo[3,4-d]pyrimidin-4-yl)-2-fluorobenzonitrile], the MTD [1] was greater than 1000 mg/kg, the “body weight loss or mortality in rats” value (Sprague Dawley rats) was “no body weight loss or mortality observed” and the CLint scaled at 1 μM ([2]; cynomolgus monkey, cryopreserved hepatocytes in suspension) was 20.1 mL/min/kg. For the same molecule, the “Intrinsic Clearance” value ([2]; monkey hepatocytes, 1 μM 11o) was 0.00558 mL/min/10^6 Cells, the half-life at 1 μM ([2]; monkey, cryopreserved hepatocytes in suspension) was 124 min and the Tmax ([3]; male, Crl:CD-1, inhaled or intranasal, mouse plasma, 1 mg/kg IN) was 30 min. The Tmax ([3]; male, Crl:CD-1, inhaled or intranasal, mouse plasma, 3 mg/kg IN) was 30 min, the Tmax [3, 5] was 30 min and the half-life [3, 5] was 444 min. The AUC(0-t) ([3]; male, Crl:CD-1, mouse, plasma, inhaled or intranasal, 1 mg/kg, mouse plasma, 1 mg/kg IN) was 74.9 ng·h/mL, the Cmax ([3]; male, Crl:CD-1, mouse, plasma, inhaled or intranasal, 1 mg/kg, mouse plasma, 1 mg/kg IN, read-out: Cmax) was 23.3 ng/mL and the AUC(0-t) ([3]; male, Crl:CD-1, mouse, plasma, inhaled or intranasal, 3 mg/kg, mouse plasma, 3 mg/kg IN) was 183 ng·h/mL. For the same molecule, the Cmax ([3]; male, Crl:CD-1, mouse, plasma, inhaled or intranasal, 3 mg/kg, mouse plasma, 3 mg/kg IN, read-out: Cmax) was 53.9 ng/mL, the AUC(0-t) ([3]; male, Crl:CD-1, mouse, plasma, inhaled or intranasal, 10 mg/kg, mouse plasma, 10 mg/kg IN) was 444 ng·h/mL and the Cmax ([3]; male, Crl:CD-1, mouse, plasma, inhaled or intranasal, 10 mg/kg, mouse plasma, 10 mg/kg IN, read-out: Cmax) was 88.5 ng/mL. It also gave an AUC(0-t) ([3]; male, Crl:CD-1, mouse, plasma, iv, 1 mg/kg, mouse plasma, 1 mg/kg IV) of 332 ng·h/mL, a Cmax ([3]; male, Crl:CD-1, mouse, plasma, iv, 1 mg/kg, mouse plasma, 1 mg/kg IV, read-out: Cmax) of 459 ng/mL and an AUC(0-t) ([3]; male, Crl:CD-1, mouse, plasma, po, 1 mg/kg, mouse plasma, 1 mg/kg PO) of 176 ng·h/mL. The Cmax ([3]; male, Crl:CD-1, mouse, plasma, po, 1 mg/kg, mouse plasma, 1 mg/kg PO, read-out: Cmax) was 36.8 ng/mL, the AUC(0-t) ([3]; male, Crl:CD-1, mouse, plasma, po, 3 mg/kg, mouse plasma, 3 mg/kg PO) was 577 ng·h/mL and the Cmax ([3]; male, Crl:CD-1, mouse, plasma, po, 3 mg/kg, mouse plasma, 3 mg/kg PO, read-out: Cmax) was 81.4 ng/mL. For the same molecule, the AUC(0-t) ([3]; male, Crl:CD-1, mouse, plasma, po, 10 mg/kg, mouse plasma, 10 mg/kg PO) was 2250 ng·h/mL, the Cmax ([3]; male, Crl:CD-1, mouse, plasma, po, 10 mg/kg, mouse plasma, 10 mg/kg PO, read-out: Cmax) was 367 ng/mL and the bioavailability ([3]; male, Crl:CD-1, plasma, other: intranasal (IN), placed near the nares, mouse, IN, 1, 3 and 10 mg/kg, depending on the dose, read-out: Bioavailability after IN administration) was 13.4 to 22.6%. For the same molecule, the Tmax [3, 6] was 4.98 min, the half-life [3, 6] was 237 min and the Tmax [3, 7] was 120 min. For the same molecule, the half-life [3, 7] was 263 min, the Tmax [3, 8] was 120 min and the half-life [3, 8] was 220 min. For the same molecule, the Tmax [3, 9] was 120 min, the half-life [3, 9] was 341 min and the BA ([3]; mouse plasma, 1 mg/kg IN, relative to AUClast of 1 mg/kg IV) was 22.6%. For the same molecule, the BA ([3]; mouse plasma, 1 mg/kg IV (reference for the calculation)) was 100%, the BA ([3]; mouse plasma, 1 mg/kg PO, relative to AUClast of 1 mg/kg IV, 1 mg/kg) was 53% and the BA ([3]; mouse plasma, 3 mg/kg IN, relative to AUClast of 1 mg/kg IV) was 18.4%. It also gave a Cmax ([3]; mouse plasma, 3 mg/kg PO, 3 mg/kg) of 81.3 ng/mL, a BA ([3]; mouse plasma, 3 mg/kg PO, relative to AUClast of 1 mg/kg IV) of 57.9% and a BA ([3]; mouse plasma, 10 mg/kg IN, relative to AUClast of 1 mg/kg IV) of 13.4%. For the same molecule, the AUClast ([3]; mouse plasma, 10 mg/kg PO, 10 mg/kg) was 2249 ng·h/mL, the BA ([3]; mouse plasma, 10 mg/kg PO, relative to AUClast of 1 mg/kg IV) was 67.7% and the “stability in dog hepatocytes (in words)” value [4] was “stable in dog hepatocytes”.
